Experimental data: PMC8286599 (Gut Pathogens, 2021)
Where two headings read alike, the source gives them in different places.

Columns and labels:
MDR-EAEC strains [1] = assay: MIC and MBC by broth microdilution with resazurin; type: cell-based, enteroaggregative Escherichia coli; conditions: infant diarrhoea isolate
From the text: (§1) The characterised MDR field strains of EAEC (E1; E2; E3), S. Enteritidis (S1; S2; S3), and S. Typhimurium (ST1; ST2; ST3) maintained in the laboratory repository of Meat Safety Laboratory of ICAR-National Research Centre on Meat, Hyderabad re-validated using PCR assays were used to evaluate the in vitro antibacterial efficacy of phytochemicals. E. coli ATCC 25922 was used as the quality control strain.
(§2) The antimicrobial efficacy of identified phytochemicals against multi-drug resistant EAEC and NTS strains was determined by estimating the minimum inhibitory concentration (MIC) and minimum bactericidal concentrations (MBC).
(§3) Subsequent to the incubation period, resazurin dye (0.015 %) was added to all the wells to determine the dye reduction (pink) and thereby the bacterial inhibition.

[2] = system: MDR-S. Enteritidis strains; assay: MIC and MBC by broth microdilution with resazurin; type: cell-based, Salmonella Enteritidis; conditions: poultry droppings isolate
From the text: as §1, §2, §3

[3] = system: MDR-S. Typhimurium strains; assay: MIC and MBC by broth microdilution with resazurin; type: cell-based, Salmonella Typhimurium; conditions: poultry droppings isolate
From the text: as §1, §2, §3

Haemolytic assay = type: cell-based; conditions: read-out: Haemolysis; for hemolysis at 0.5 X MIC: 0.50X MIC
Method: (§4) The haemolytic assay of the individual phytochemical was performed by measuring the release of haemoglobin from sheep and human ‘O’ erythrocytes at 540 nm. The percentage of haemolysis was calculated as (Asample – APBS)/ (ATriton−X – APBS) ×100, in which Asample is the absorbance of phytochemical treatment, APBS is the absorbance of untreated control with PBS, and ATriton−X is the absorbance of lysed cells treated with Triton X-100 measured at 540 nm.

[4] = Haemolytic assay, text summary; type: cell-based; conditions: sheep and human, sheep and human 'O' erythrocytes; read-out: Haemolysis
Method: as §4

MDR-EAEC strains [5] = assay: Stability assay, pH (MIC)
From the text: (§5) To explore the utility of phytochemicals as therapeutic molecules and their stability, individual phytochemicals were exposed to cationic salts, and different pH levels followed by analysing their MIC and MBC values against test strains as described earlier.
(§6) Subsequent to exposure to varied conditions, the antimicrobial activity of the phytochemicals was estimated by determining their MIC and MBC values against all the selected MDR strains of EAEC, S. Enteritidis, and S. Typhimurium as described earlier.

[6] = system: MDR-S. Enteritidis strains; assay: Stability assay, pH (MIC)
From the text: as §5, §6

[7] = system: MDR-S. Typhimurium strains; assay: Stability assay, pH (MIC)
From the text: as §5, §6

MDR-EAEC strains [8] = assay: Stability assay, cationic salts (MIC)
From the text: as §5, §6

[9] = system: MDR-S. Enteritidis strains; assay: Stability assay, cationic salts (MIC)
From the text: as §5, §6

[10] = system: MDR-S. Typhimurium strains; assay: Stability assay, cationic salts (MIC)
From the text: as §5, §6

[11] = human 'O' erythrocytes, Human RBCs

Q: With `Cc1ccc(C(C)C)cc1O` [Carvacrol, carvacrol] as the compound, how does the MBC (MDR-EAEC strains [1]; EAEC (E1)) read?
A: Its MBC is 1.0 µl/ml.

Q: And the MIC (MDR-EAEC strains [1]; EAEC (E1))?
A: The MIC was 0.25 µl/ml.

Q: And the MBC (MDR-EAEC strains [1]; EAEC (E2))?
A: The MBC was 0.50 µl/ml.

Q: And the MIC (MDR-EAEC strains [1]; EAEC (E2))?
A: Its MIC is 0.50 µl/ml.

Q: What about the MBC (MDR-EAEC strains [1]; EAEC (E3)) of the same compound?
A: The MBC was 0.50 µl/ml.

Q: And the MIC (MDR-EAEC strains [1]; EAEC (E3))?
A: The MIC was 0.25 µl/ml.

Q: And the MBC ([2]; S. Enteritidis (S1))?
A: The MBC was 0.50 µl/ml.

Q: What about the MIC ([2]; S. Enteritidis (S1)) of the same compound?
A: The MIC was 0.12 µl/ml.

Q: What about the MBC ([2]; S. Enteritidis (S2)) of the same compound?
A: Its MBC is 0.50 µl/ml.

Q: What about the MIC ([2]; S. Enteritidis (S2)) of the same compound?
A: The MIC was 0.25 µl/ml.

Q: What about the MBC ([2]; S. Enteritidis (S3)) of the same compound?
A: The MBC was 0.50 µl/ml.

Q: What about the MIC ([2]; S. Enteritidis (S3)) of the same compound?
A: The MIC was 0.25 µl/ml.

Q: And the MBC ([3]; S. Typhimurium (ST1))?
A: The MBC was 0.50 µl/ml.

Q: And the MIC ([3]; S. Typhimurium (ST1))?
A: Its MIC is 0.12 µl/ml.

Q: And the MBC ([3]; S. Typhimurium (ST2))?
A: Its MBC is 0.50 µl/ml.

Q: What about the MIC ([3]; S. Typhimurium (ST2)) of the same compound?
A: The MIC was 0.12 µl/ml.

Q: What about the MBC ([3]; S. Typhimurium (ST3)) of the same compound?
A: Its MBC is 0.50 µl/ml.

Q: And the MIC ([3]; S. Typhimurium (ST3))?
A: Its MIC is 0.12 µl/ml.

Q: What about the hemolysis at 0.25 X MIC (Haemolytic assay; [11]) of the same compound?
A: The hemolysis at 0.25 X MIC was 2.66%.

Q: What about the hemolysis at 0.5 X MIC (Haemolytic assay; [11]) of the same compound?
A: Its hemolysis at 0.5 X MIC is 4.88%.

Q: What about the hemolysis at 1 X MIC (Haemolytic assay; [11]) of the same compound?
A: Its hemolysis at 1 X MIC is 11.2%.

Q: And the hemolysis at 2 X MIC (Haemolytic assay; [11])?
A: Its hemolysis at 2 X MIC is 57.2%.

Q: What about the hemolysis at 4 X MIC (Haemolytic assay; [11]) of the same compound?
A: The hemolysis at 4 X MIC was 82.1%.

Q: What about the hemolysis at 8 X MIC (Haemolytic assay; [11]) of the same compound?
A: The hemolysis at 8 X MIC was 92.7%.

Q: What about the hemolysis at 0.25 X MIC (Haemolytic assay; sheep erythrocytes, Sheep RBCs) of the same compound?
A: Its hemolysis at 0.25 X MIC is 0%.

Q: And the hemolysis at 0.5 X MIC (Haemolytic assay; sheep erythrocytes, Sheep RBCs)?
A: The hemolysis at 0.5 X MIC was 0.773%.

Q: What about the hemolysis at 1 X MIC (Haemolytic assay; sheep erythrocytes, Sheep RBCs) of the same compound?
A: Its hemolysis at 1 X MIC is 1.25%.

Q: What about the hemolysis at 2 X MIC (Haemolytic assay; sheep erythrocytes, Sheep RBCs) of the same compound?
A: Its hemolysis at 2 X MIC is 75.7%.

Q: What about the hemolysis at 4 X MIC (Haemolytic assay; sheep erythrocytes, Sheep RBCs) of the same compound?
A: The hemolysis at 4 X MIC was 81.8%.

Q: And the hemolysis at 8 X MIC (Haemolytic assay; sheep erythrocytes, Sheep RBCs)?
A: Its hemolysis at 8 X MIC is 86%.

Q: What about the hemolysis [4] of the same compound?
A: The hemolysis was 57 to 82%.

Q: And the “MIC at given pH” value (MDR-EAEC strains [5]; pH 4, strain E1)?
A: The value was 0.5 µl/ml.

Q: What about the “MIC at given pH” value (MDR-EAEC strains [5]; pH 4, strain E2) of the same compound?
A: The value was 1.0 µl/ml.

Q: What about the “MIC at given pH” value (MDR-EAEC strains [5]; pH 4, strain E3) of the same compound?
A: Its value is 0.5 µl/ml.

Q: What about the “Change of MIC values at varied pH” value (MDR-EAEC strains [5]; pH 4.0 to 8.0, MDR-EAEC strains) of the same compound?
A: Its value is “two- to four-fold increase”.

Q: And the “MIC at given pH” value (MDR-EAEC strains [5]; pH 6, strain E1)?
A: The value was 0.5 µl/ml.

Q: And the “MIC at given pH” value (MDR-EAEC strains [5]; pH 6, strain E2)?
A: Its value is 1.0 µl/ml.

Q: What about the “MIC at given pH” value (MDR-EAEC strains [5]; pH 6, strain E3) of the same compound?
A: The value was 0.5 µl/ml.

Q: And the “MIC at given pH” value (MDR-EAEC strains [5]; pH 8, strain E1)?
A: Its value is 0.5 µl/ml.

Q: And the “MIC at given pH” value (MDR-EAEC strains [5]; pH 8, strain E2)?
A: Its value is 1.0 µl/ml.

Q: What about the “MIC at given pH” value (MDR-EAEC strains [5]; pH 8, strain E3) of the same compound?
A: Its value is 0.5 µl/ml.

Q: And the “MIC at given pH” value ([6]; pH 4, strain S1)?
A: Its value is 0.5 µl/ml.

Q: And the “MIC at given pH” value ([6]; pH 4, strain S2)?
A: The value was 0.5 µl/ml.

Q: What about the “MIC at given pH” value ([6]; pH 4, strain S3) of the same compound?
A: The value was 0.5 µl/ml.

Q: And the “MIC at given pH” value ([6]; pH 6, strain S1)?
A: Its value is 0.5 µl/ml.

Q: What about the “MIC at given pH” value ([6]; pH 6, strain S2) of the same compound?
A: Its value is 0.5 µl/ml.

Q: And the “MIC at given pH” value ([6]; pH 6, strain S3)?
A: Its value is 0.5 µl/ml.

Q: What about the “MIC at given pH” value ([6]; pH 8, strain S1) of the same compound?
A: The value was 0.5 µl/ml.

Q: What about the “MIC at given pH” value ([6]; pH 8, strain S2) of the same compound?
A: Its value is 0.5 µl/ml.

Q: What about the “MIC at given pH” value ([6]; pH 8, strain S3) of the same compound?
A: The value was 0.5 µl/ml.

Q: What about the “MIC at given pH” value ([7]; pH 4, strain ST1) of the same compound?
A: Its value is 0.5 µl/ml.

Q: What about the “MIC at given pH” value ([7]; pH 4, strain ST2) of the same compound?
A: Its value is 0.5 µl/ml.

Q: And the “MIC at given pH” value ([7]; pH 4, strain ST3)?
A: The value was 1.0 µl/ml.

Q: What about the “MIC at given pH” value ([7]; pH 6, strain ST1) of the same compound?
A: The value was 0.5 µl/ml.

Q: What about the “MIC at given pH” value ([7]; pH 6, strain ST2) of the same compound?
A: Its value is 1.0 µl/ml.

Q: What about the “MIC at given pH” value ([7]; pH 6, strain ST3) of the same compound?
A: The value was 1.0 µl/ml.

Q: And the “MIC at given pH” value ([7]; pH 8, strain ST1)?
A: The value was 2.0 µl/ml.

Q: What about the “MIC at given pH” value ([7]; pH 8, strain ST2) of the same compound?
A: Its value is 1.0 µl/ml.

Q: What about the “MIC at given pH” value ([7]; pH 8, strain ST3) of the same compound?
A: Its value is 1.0 µl/ml.

Q: What about the “MIC with cationic salt” value (MDR-EAEC strains [8]; 2 mM MgCl2, strain E1) of the same compound?
A: Its value is 0.5 µl/ml.

Q: What about the “MIC with cationic salt” value (MDR-EAEC strains [8]; 2 mM MgCl2, strain E2) of the same compound?
A: The value was 1.0 µl/ml.

Q: What about the “MIC with cationic salt” value (MDR-EAEC strains [8]; 2 mM MgCl2, strain E3) of the same compound?
A: The value was 1.0 µl/ml.

Q: What about the “Change of MIC values with cationic salts” value (MDR-EAEC strains [8]; 150 mM NaCl and 2 mM MgCl2, MDR-EAEC strains) of the same compound?
A: The value was “two- to four-fold increase”.

Q: And the “MIC with cationic salt” value (MDR-EAEC strains [8]; 150 mM NaCl, strain E1)?
A: Its value is 1.0 µl/ml.

Q: What about the “MIC with cationic salt” value (MDR-EAEC strains [8]; 150 mM NaCl, strain E2) of the same compound?
A: The value was 1.0 µl/ml.

Q: What about the “MIC with cationic salt” value (MDR-EAEC strains [8]; 150 mM NaCl, strain E3) of the same compound?
A: The value was 1.0 µl/ml.

Q: What about the “MIC with cationic salt” value ([9]; 2 mM MgCl2, strain S1) of the same compound?
A: Its value is 0.5 µl/ml.

Q: And the “MIC with cationic salt” value ([9]; 2 mM MgCl2, strain S2)?
A: The value was 0.5 µl/ml.

Q: And the “MIC with cationic salt” value ([9]; 2 mM MgCl2, strain S3)?
A: Its value is 0.5 µl/ml.

Q: What about the “MIC with cationic salt” value ([9]; 150 mM NaCl, strain S1) of the same compound?
A: The value was 0.5 µl/ml.

Q: And the “MIC with cationic salt” value ([9]; 150 mM NaCl, strain S2)?
A: The value was 1.0 µl/ml.

Q: What about the “MIC with cationic salt” value ([9]; 150 mM NaCl, strain S3) of the same compound?
A: Its value is 0.5 µl/ml.

Q: And the “MIC with cationic salt” value ([10]; 2 mM MgCl2, strain ST1)?
A: Its value is 0.5 µl/ml.

Q: What about the “MIC with cationic salt” value ([10]; 2 mM MgCl2, strain ST2) of the same compound?
A: The value was 0.5 µl/ml.

Q: And the “MIC with cationic salt” value ([10]; 2 mM MgCl2, strain ST3)?
A: Its value is 0.5 µl/ml.

Q: And the “MIC with cationic salt” value ([10]; 150 mM NaCl, strain ST1)?
A: Its value is 0.5 µl/ml.

Q: And the “MIC with cationic salt” value ([10]; 150 mM NaCl, strain ST2)?
A: The value was 0.5 µl/ml.

Q: What about the “MIC with cationic salt” value ([10]; 150 mM NaCl, strain ST3) of the same compound?
A: Its value is 0.5 µl/ml.
